Patent US20240368139A1, “NOVEL MODULATORS OF EHMT1 AND EHMT2 AND THERAPEUTIC USE THEREOF” (Tango Therapeutics, Inc., priority 2021, published 2024)
pIC50: −log10 of the molar value.

Key:
H3K9me2 in HCT116 cells = test: HCT116 H3K9me2 in-cell western assay; format: cell-based; conditions: Homo sapiens, HCT-116, 72 h, HCT116 cells, 72 hours incubation; read-out: H3K9me2 ICW IC50
Procedure, shortened: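 HCT116 cells (2,000/well) were treated for 72 h at 37° C, 5% CO2, with ten two-fold dilutions from 10 μM in duplicate. After PFA fixation, cells were stained overnight at 4° C with anti-H3K9me2, then with an 800 CW secondary plus DRAQ5.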

human EHMT2 913-1193 = target: T1, human EHMT2 913-1193 (Homo sapiens, UniProt Q96KQ7); test: EHMT2 enzyme assay on histone peptide substrate (3H-SAM SPA); conditions: EHMT2 IC50, recombinant human EHMT2 913-1193, histone peptide substrate
T1 sequence (Q96KQ7 913-1193): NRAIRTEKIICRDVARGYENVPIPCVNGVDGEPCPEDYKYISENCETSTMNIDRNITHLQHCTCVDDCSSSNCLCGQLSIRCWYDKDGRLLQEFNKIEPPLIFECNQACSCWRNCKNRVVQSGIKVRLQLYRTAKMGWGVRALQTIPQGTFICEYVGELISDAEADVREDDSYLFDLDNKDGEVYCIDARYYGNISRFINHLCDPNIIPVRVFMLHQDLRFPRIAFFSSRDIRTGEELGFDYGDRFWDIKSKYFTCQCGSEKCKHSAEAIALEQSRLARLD

human EHMT1 982-1266 = target: T2, human EHMT1 982-1266 (Homo sapiens, UniProt Q9H9B1); test: EHMT1 enzyme assay on histone peptide substrate (3H-SAM SPA); conditions: EHMT1 IC50, recombinant human EHMT1 982-1266, histone peptide substrate
T2 sequence (Q9H9B1 982-1266): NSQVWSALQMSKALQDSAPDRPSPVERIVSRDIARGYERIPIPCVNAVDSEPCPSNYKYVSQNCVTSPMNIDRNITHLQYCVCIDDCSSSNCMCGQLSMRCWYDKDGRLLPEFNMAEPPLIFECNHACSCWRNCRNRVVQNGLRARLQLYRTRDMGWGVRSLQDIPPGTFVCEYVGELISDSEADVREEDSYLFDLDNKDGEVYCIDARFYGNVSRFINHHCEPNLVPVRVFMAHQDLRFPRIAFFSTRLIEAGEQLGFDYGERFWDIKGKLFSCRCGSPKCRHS

| SMILES | pIC50 (H3K9me2 in HCT116 cells) | pIC50 (human EHMT2 913-1193) | pIC50 (human EHMT1 982-1266) |
| --- | --- | --- | --- |
| [2H]C([2H])([2H])CNc1cc(C)nc(Nc2cc3c(c(C4=CCNCCC4)c2)OCCC3)n1 [Compound 263] | 6.30 to 7.00 | > 7.00 | > 7.00 |
| CNc1nc(Nc2cc3c(c(C4=CCN(C)CCC4)c2)OCC3)nc(C)c1F [Compound 267] | 6.30 to 7.00 | 5.70 to 6.30 | 6.30 to 7.00 |
| [2H]C([2H])([2H])Nc1cc(C)nc(Nc2cc3c(c(C4=CCN(C)CCC4)c2)OCCC3)n1 [Compound 268] | 6.30 to 7.00 | 6.30 to 7.00 | > 7.00 |
| [2H]C([2H])([2H])Nc1nc(Nc2cc3c(c(C4=CCN(C)CCC4)c2)OCC3)nc(C)c1F [Compound 271] | 6.30 to 7.00 | 5.70 to 6.30 | 6.30 to 7.00 |
| [2H]C([2H])([2H])CNc1cc(C)nc(Nc2cc3c(c(C4=CCN(C)CCC4)c2)OCCO3)n1 [Compound 272] | 6.30 to 7.00 | 5.70 to 6.30 | 6.30 to 7.00 |
| [2H]C([2H])([2H])Nc1nc(Nc2cc3c(c(C4=CCNCCC4)c2)OCO3)nc(C)c1F [Compound 275] | 6.30 to 7.00 | 5.70 to 6.30 | 6.30 to 7.00 |
| [2H]C([2H])([2H])Nc1nc(Nc2cc3c(c(C4=CCNCCC4)c2)OCC3)nc(C)c1F [Compound 276] | 6.30 to 7.00 | 6.30 to 7.00 | 6.30 to 7.00 |
| CNc1nc(Nc2cc3c(c(C4=CCNCCC4)c2)OCC3)nc(C)c1F [Compound 277] | 6.30 to 7.00 | 6.30 to 7.00 | 6.30 to 7.00 |
| CNc1cc(C)nc(Nc2cc3c(c(C4=CCN(C)CCC4)c2)OCC3)c1 [Compound 278] | 6.30 to 7.00 | 6.30 to 7.00 | > 7.00 |
| CNc1nc(Nc2cc3c(c(C4=CCNCCC4)c2)OCO3)nc(C)c1F [Compound 279] | 6.30 to 7.00 | 5.70 to 6.30 | 6.30 to 7.00 |
| [2H]C([2H])([2H])Nc1cc(C)nc(Nc2cc3c(c(C4=CCN(C)CCC4)c2)OCCO3)n1 [Compound 282] | 6.30 to 7.00 | 5.70 to 6.30 | > 7.00 |
| CNc1nc(Nc2cc3c(c(C4=CCNCCC4)c2)OCC3)nc(C)c1Cl [Compound 284] | 6.30 to 7.00 | 5.70 to 6.30 | 6.30 to 7.00 |
| [2H]C([2H])([2H])CNc1cc(C)nc(Nc2cc3c(c(C4=CCNCCC4)c2)OCCO3)n1 [Compound 285] | 6.30 to 7.00 | 6.30 to 7.00 | 6.30 to 7.00 |
| CNc1nc(Nc2cc3c(c(C4=CCN(C)CCC4)c2)OCC3)nc(C)c1C [Compound 286] | 6.30 to 7.00 | 6.30 to 7.00 | > 7.00 |
| CNc1cc(C)nc(Nc2cc3c(c(C4=CCNCCC4)c2)OCC3)c1 [Compound 288] | 6.30 to 7.00 | > 7.00 | > 7.00 |
| Cc1cc(NCC2CCCO2)nc(Nc2cc3c(c(C4=CCN(C)CCC4)c2)OCC3)n1 (stereo not drawn) [Compound 292] | 6.30 to 7.00 | 6.30 to 7.00 | 6.30 to 7.00 |
| COCCCNc1cc(C)nc(Nc2cc3c(c(C4=CCNCCC4)c2)OCC3)c1 [Compound 293] | 5.70 to 6.30 | 6.30 to 7.00 | 6.30 to 7.00 |
| Cc1cc(NCC2CCCO2)nc(Nc2cc3c(c(C4=CCNCCC4)c2)OCC3)n1 (stereo not drawn) [Compound 294] | 6.30 to 7.00 | 6.30 to 7.00 | > 7.00 |
| COCCCNc1cc(C)nc(Nc2cc3c(c(C4=CCN(C)CCC4)c2)OCC3)c1 [Compound 295] | 5.70 to 6.30 | 5.70 to 6.30 | 6.30 to 7.00 |
| [2H]C([2H])([2H])CNc1cc(C)nc(Nc2cc3c(c(C4=CCN(C)CCC4)c2)OCC3)n1 [Compound 296] | 6.30 to 7.00 | 6.30 to 7.00 | > 7.00 |
| COCCNc1cc(C)nc(Nc2cc3c(c(C4=CCN(C)CCC4)c2)OCC3)c1 [Compound 297] | 5.70 to 6.30 | 5.70 to 6.30 | 6.30 to 7.00 |
| COCCCNc1cc(C)nc(Nc2cc3c(c(C4=CCN(C)CCC4)c2)OCC3)n1 [Compound 298] | 6.30 to 7.00 | 6.30 to 7.00 | > 7.00 |
| Cc1cc(NCC2CCOCC2)nc(Nc2cc3c(c(C4=CCN(C)CCC4)c2)OCC3)n1 [Compound 299] | 6.30 to 7.00 | 6.30 to 7.00 | > 7.00 |
| [2H]C([2H])([2H])CNc1cc(C)nc(Nc2cc3c(c(C4=CCNCCC4)c2)OCC3)n1 [Compound 300] | 6.30 to 7.00 | > 7.00 | > 7.00 |
| [2H]C([2H])([2H])Nc1cc(C)nc(Nc2cc3c(c(C4=CCN(C)CCC4)c2)OCC3)n1 [Compound 301] | 6.30 to 7.00 | > 7.00 | > 7.00 |
| CNc1cc(Nc2cc3c(c(C4=CCNCCC4)c2)OCC3)nc(C)c1F [Compound 304] | 6.30 to 7.00 | > 7.00 | > 7.00 |
| COCCNc1cc(C)nc(Nc2cc3c(c(C4=CCNCCC4)c2)OCC3)c1 [Compound 305] | 5.70 to 6.30 | 6.30 to 7.00 | 6.30 to 7.00 |

Other lines, results leading:

| pIC50 (H3K9me2 in HCT116 cells) | pIC50 (human EHMT2 913-1193) | pIC50 (human EHMT1 982-1266) | SMILES |
| --- | --- | --- | --- |
| > 7.00 | > 7.00 | > 7.00 | CNc1cc(Nc2cc3c(c(C4=CCN(C)CCC4)c2F)OCC3)nc(C)c1F [Compound 255] |
| > 7.00 | > 7.00 | > 7.00 | [2H]C([2H])([2H])Nc1nc(Nc2cc3c(c(C4=CCNCCC4)c2F)OCC3)nc(C)c1F [Compound 256] |
| > 7.00 | > 7.00 | > 7.00 | CNc1cc(Nc2cc3c(c(C4=CCNCCC4)c2F)OCC3)nc(C)c1F [Compound 257] |
| 6.30 to 7.00 | 6.30 to 7.00 | 6.30 to 7.00 | [2H]C([2H])([2H])CNc1nc(Nc2cc3c(c(C4=CCNCCC4)c2F)OCC3)nc(C)c1F [Compound 258] |
| 6.30 to 7.00 | 6.30 to 7.00 | > 7.00 | [2H]C([2H])([2H])CNc1cc(C)nc(Nc2cc3c(c(C4=CCN(C)CCC4)c2)OCCC3)n1 [Compound 259] |
| > 7.00 | > 7.00 | > 7.00 | [2H]Cc1cc(NCC([2H])([2H])[2H])nc(Nc2cc3c(c(C4=CCN(C)CCC4)c2F)OCC3)n1 [Compound 260] |
| 6.30 to 7.00 | 5.70 to 6.30 | 6.30 to 7.00 | [2H]C([2H])([2H])CNc1nc(Nc2cc3c(c(C4=CCN(C)CCC4)c2F)OCC3)nc(C)c1F [Compound 261] |
| > 7.00 | > 7.00 | > 7.00 | [2H]Cc1cc(NCC([2H])([2H])[2H])nc(Nc2cc3c(c(C4=CCNCCC4)c2F)OCC3)n1 [Compound 262] |
| > 7.00 | > 7.00 | > 7.00 | [2H]C([2H])([2H])Nc1cc(C)nc(Nc2cc3c(c(C4=CCNCCC4)c2)OCCC3)n1 [Compound 264] |
| > 7.00 | > 7.00 | > 7.00 | [2H]Cc1cc(NC)nc(Nc2cc3c(c(C4=CCN(C)CCC4)c2)OCO3)n1 [Compound 265] |
| > 7.00 | 6.30 to 7.00 | > 7.00 | [2H]Cc1cc(NC)nc(Nc2cc3c(c(C4=CCN(C)CCC4)c2)OCCO3)n1 [Compound 266] |
| > 7.00 | > 7.00 | > 7.00 | [2H]Cc1cc(NC)nc(Nc2cc3c(c(C4=CCNCCC4)c2)OCO3)n1 [Compound 269] |
| > 7.00 | > 7.00 | > 7.00 | [2H]Cc1cc(NC)nc(Nc2cc3c(c(C4=CCNCCC4)c2)OCCO3)n1 [Compound 270] |
| > 7.00 | 6.30 to 7.00 | > 7.00 | [2H]C([2H])([2H])Nc1cc(C)nc(Nc2cc3c(c(C4=CCN(C)CCC4)c2)OCO3)n1 [Compound 273] |
| > 7.00 | > 7.00 | > 7.00 | [2H]C([2H])([2H])N1CC=C(c2cc(Nc3nc(C)cc(NC)n3)cc3c2OCC3)CCC1 [Compound 274] |
| > 7.00 | > 7.00 | > 7.00 | CNc1cc(C)nc(Nc2cc3c(c(C4=CCN(C)CCC4)c2F)OCC3)n1 [Compound 280, N2-[6-fluoro-7-(1-methyl-2,3,4,7-tetrahydroazepin-5-yl)-2,3-dihydrobenzofuran-5-yl]-N4,6-dimethyl-pyrimidine-2,4-diamine] |
| > 7.00 | > 7.00 | > 7.00 | [2H]C([2H])([2H])Nc1cc(C)nc(Nc2cc3c(c(C4=CCNCCC4)c2)OCO3)n1 [Compound 281] |
| > 7.00 | > 7.00 | > 7.00 | [2H]C([2H])([2H])Nc1cc(C)nc(Nc2cc3c(c(C4=CCNCCC4)c2)OCCO3)n1 [Compound 283] |
| > 7.00 | > 7.00 | > 7.00 | CNc1nc(Nc2cc3c(c(C4=CCNCCC4)c2)OCC3)nc(C)c1C [Compound 287] |
| > 7.00 | > 7.00 | > 7.00 | [2H]Cc1cc(NC)nc(Nc2cc3c(c(C4=CCNCCC4)c2)OCC3)n1 [Compound 302] |
| > 7.00 | > 7.00 | > 7.00 | [2H]Cc1cc(NC)nc(Nc2cc3c(c(C4=CCN(C)CCC4)c2)OCC3)n1 [Compound 303] |
